Measured values taken from ChEMBL document CHEMBL3526078, “Pharmacokinetics and hepatic uptake of eltrombopag, a novel platelet-increasing agent” (Drug Metab Dispos, 2011).

Columns and labels:
[1] = Total clearance in bile-duct cannulated Sprague-Dawley rat at 1 mg/kg, iv in presence of 20 mg/kg rifampicin (reference value: 34.3 +/- 3.9 ml/h/kg); type: ADME, organism-based; conditions: in vivo
Hepatocyte [2] = experiment: Drug uptake in mouse hepatocytes in presence of GABA; type: ADME, cell-based
[3] = target: T1, Solute carrier family 22 member 1 (Homo sapiens, UniProt O15245); experiment: Inhibition of OCT1-mediated [14C]tetraethylammonium uptake in human OCT1 expressing HEK293/PDZK1 cells by scintillation counting; type: ADME, cell-based
T1 sequence (O15245 whole entry): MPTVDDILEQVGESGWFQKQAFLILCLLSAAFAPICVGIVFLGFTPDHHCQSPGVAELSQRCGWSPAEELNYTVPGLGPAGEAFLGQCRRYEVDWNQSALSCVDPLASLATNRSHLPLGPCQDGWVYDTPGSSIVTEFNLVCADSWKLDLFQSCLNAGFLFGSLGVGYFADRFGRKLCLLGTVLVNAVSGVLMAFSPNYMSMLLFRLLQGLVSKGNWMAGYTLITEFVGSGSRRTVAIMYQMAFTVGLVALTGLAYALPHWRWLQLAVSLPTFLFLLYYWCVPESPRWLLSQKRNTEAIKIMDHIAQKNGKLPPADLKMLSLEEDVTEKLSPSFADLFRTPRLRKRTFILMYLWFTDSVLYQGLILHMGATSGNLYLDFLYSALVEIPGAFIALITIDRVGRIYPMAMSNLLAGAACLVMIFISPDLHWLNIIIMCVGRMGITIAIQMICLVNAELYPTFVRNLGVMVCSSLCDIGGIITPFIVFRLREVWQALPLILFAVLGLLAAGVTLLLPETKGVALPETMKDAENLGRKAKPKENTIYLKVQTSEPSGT

Liver [4] = conditions: rat, in vivo, iv, 1 mg/kg
[5] = Total clearance in bile duct cannulated Sprague-Dawley rat at 1 mg/kg, iv; type: ADME, organism-based; parameters: dose 1 mg/kg, route intravenous; conditions: in vivo
Hepatocyte [6] = experiment: Drug uptake in mouse hepatocytes at 37 degC up to 5 mins; type: ADME, cell-based
[7] = target: T2, Solute carrier organic anion transporter family member 2B1 (Homo sapiens, UniProt O94956); experiment: Inhibition of OATP2B1-mediated [3H]estrone-3-sulfate uptake in human OATP2B1 expressing HEK293/PDZK1 cells by scintillation counting; type: ADME, cell-based
T2 sequence (O94956 whole entry): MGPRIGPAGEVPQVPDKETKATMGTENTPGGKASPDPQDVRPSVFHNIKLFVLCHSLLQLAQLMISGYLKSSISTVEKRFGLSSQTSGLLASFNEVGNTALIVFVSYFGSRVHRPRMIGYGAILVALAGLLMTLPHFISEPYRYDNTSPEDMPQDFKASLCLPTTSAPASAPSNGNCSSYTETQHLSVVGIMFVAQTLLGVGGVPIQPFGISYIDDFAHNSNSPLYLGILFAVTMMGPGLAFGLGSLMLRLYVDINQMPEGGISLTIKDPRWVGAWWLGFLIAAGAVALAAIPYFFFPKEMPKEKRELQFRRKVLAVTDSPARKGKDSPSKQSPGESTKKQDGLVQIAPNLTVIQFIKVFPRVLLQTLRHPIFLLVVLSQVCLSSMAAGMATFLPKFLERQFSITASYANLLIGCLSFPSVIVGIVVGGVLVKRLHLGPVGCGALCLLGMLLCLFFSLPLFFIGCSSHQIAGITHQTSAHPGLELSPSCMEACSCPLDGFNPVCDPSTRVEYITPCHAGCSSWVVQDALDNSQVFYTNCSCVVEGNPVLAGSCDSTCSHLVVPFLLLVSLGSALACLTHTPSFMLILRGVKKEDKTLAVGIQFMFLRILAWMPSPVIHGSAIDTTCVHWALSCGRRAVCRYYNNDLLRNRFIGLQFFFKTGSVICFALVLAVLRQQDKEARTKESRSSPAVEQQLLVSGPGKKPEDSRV

Kidney = experiment: Drug uptake in mouse kidney at 1 mg/kg, iv in presence of 20 mg/kg OATP inhibitor rifampicin; type: ADME, organism-based; conditions: in vivo
Hepatocyte [8] = experiment: Drug uptake in mouse hepatocytes at 4 degC; type: ADME, cell-based
[9] = Total clearance in Sprague-Dawley rat at 1 mg/kg, iv; type: ADME, organism-based; parameters: dose 1 mg/kg, route intravenous; conditions: in vivo
Liver [10] = experiment: Tissue uptake clearance in bile duct cannulated Sprague-Dawley rat liver at 1 mg/kg, iv by integration plot analysis; type: ADME, organism-based; parameters: dose 1 mg/kg, route intravenous; conditions: in vivo
Hepatocyte [11] = experiment: Drug uptake in mouse hepatocytes in presence of tetraethylammonium; type: ADME, cell-based
Hepatocyte [12] = experiment: Drug uptake in mouse hepatocytes in absence of Cl-; type: ADME, cell-based
[13] = target: T3, Solute carrier organic anion transporter family member 1B1 (Homo sapiens, UniProt Q9Y6L6); experiment: Inhibition of OATP1B1-mediated [3H]estrone-3-sulfate uptake in human OATP1B1 expressing HEK293/PDZK1 cells by scintillation counting; type: ADME, cell-based
T3 sequence (Q9Y6L6 whole entry): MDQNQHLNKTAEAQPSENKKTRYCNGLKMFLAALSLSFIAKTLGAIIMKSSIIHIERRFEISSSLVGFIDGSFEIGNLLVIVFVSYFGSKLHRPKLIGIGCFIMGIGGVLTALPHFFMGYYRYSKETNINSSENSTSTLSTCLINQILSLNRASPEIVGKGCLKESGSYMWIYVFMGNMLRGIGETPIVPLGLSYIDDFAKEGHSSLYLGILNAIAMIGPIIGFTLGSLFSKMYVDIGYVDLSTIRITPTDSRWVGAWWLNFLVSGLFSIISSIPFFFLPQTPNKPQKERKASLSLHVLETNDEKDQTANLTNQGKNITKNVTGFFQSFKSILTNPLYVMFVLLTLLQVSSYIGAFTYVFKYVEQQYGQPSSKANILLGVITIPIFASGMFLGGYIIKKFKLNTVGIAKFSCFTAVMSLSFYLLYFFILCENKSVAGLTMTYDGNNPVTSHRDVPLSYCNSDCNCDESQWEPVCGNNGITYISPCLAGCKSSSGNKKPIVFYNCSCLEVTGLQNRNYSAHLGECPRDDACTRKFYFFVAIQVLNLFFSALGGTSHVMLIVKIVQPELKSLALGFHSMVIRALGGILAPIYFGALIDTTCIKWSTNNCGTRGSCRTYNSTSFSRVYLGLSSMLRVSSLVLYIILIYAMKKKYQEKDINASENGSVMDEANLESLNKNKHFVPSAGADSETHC

Hepatocyte [14] = experiment: Drug uptake in mouse hepatocytes in presence of TPeA; type: ADME, cell-based
Hepatocyte [15] = experiment: Drug uptake in mouse hepatocytes at pH 6.5; type: ADME, cell-based
[16] = Total clearance in wild-type mouse at 1 mg/kg, iv; type: ADME, organism-based; parameters: dose 1 mg/kg, route intravenous; conditions: in vivo
[17] = target: T4, Solute carrier organic anion transporter family member 1B3 (Homo sapiens, UniProt Q9NPD5); experiment: Inhibition of OATP1B3-mediated [3H]estradiol 17beta-glucuronide uptake in human OATP1B3 expressing HEK293/PDZK1 cells by scintillation counting; type: ADME, cell-based
T4 sequence (Q9NPD5 whole entry): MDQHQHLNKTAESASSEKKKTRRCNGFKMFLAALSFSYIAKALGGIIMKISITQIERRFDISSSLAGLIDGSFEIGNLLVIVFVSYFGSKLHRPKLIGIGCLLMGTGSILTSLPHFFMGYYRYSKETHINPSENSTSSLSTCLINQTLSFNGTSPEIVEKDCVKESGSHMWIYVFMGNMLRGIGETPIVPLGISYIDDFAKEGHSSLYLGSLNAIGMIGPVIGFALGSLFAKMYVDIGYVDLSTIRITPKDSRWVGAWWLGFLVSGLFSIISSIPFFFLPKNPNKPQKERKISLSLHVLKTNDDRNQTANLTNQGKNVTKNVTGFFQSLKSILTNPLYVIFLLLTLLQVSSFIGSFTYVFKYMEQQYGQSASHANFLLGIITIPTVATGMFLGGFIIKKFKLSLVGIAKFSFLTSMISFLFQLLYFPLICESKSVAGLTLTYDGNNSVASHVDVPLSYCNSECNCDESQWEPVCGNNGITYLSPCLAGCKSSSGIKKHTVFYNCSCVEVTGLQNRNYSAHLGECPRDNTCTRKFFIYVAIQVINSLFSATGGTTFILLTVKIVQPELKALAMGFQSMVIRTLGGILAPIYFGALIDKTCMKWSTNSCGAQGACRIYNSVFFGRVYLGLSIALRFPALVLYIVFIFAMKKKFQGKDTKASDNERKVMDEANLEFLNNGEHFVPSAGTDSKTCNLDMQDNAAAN

Hepatocyte [18] = experiment: Drug uptake in mouse hepatocytes at pH 5.5; type: ADME, cell-based

clearance [1]: 0.335 mL/min/kg | Drug uptake (Hepatocyte [2]): Not Active | Ki [3]: 103 µM | inhibition (INH) ([3]; human, hek293/pdzk1): Active | CLup (Liver [4]): 0.38 mL/min/kg | clearance [5]: 0.572 mL/min/kg | Drug uptake (Hepatocyte [6]): Active | Ki [7]: 8.48 µM | inhibition (INH) ([7]; human, hek293/pdzk1): Active | Drug uptake (Kidney): Active | Drug uptake (Hepatocyte [8]): Not Active | clearance [9]: 0.55 mL/min/kg | CLup (Liver [10]): 0.747 mL/min/kg | Drug uptake (Hepatocyte [11]): Not Active | Drug uptake (Hepatocyte [12]): Active | Ki [13]: 14.9 µM | inhibition (INH) ([13]; human, hek293/pdzk1): Active | Drug uptake (Hepatocyte [14]): Not Active | Drug uptake (Hepatocyte [15]): Active | clearance [16]: 1.29 mL/min/kg | Ki [17]: 25.6 µM | inhibition (INH) ([17]; human, hek293/pdzk1): Active | Drug uptake (Hepatocyte [18]): Active
Structure (SMILES): CC1=NN(c2ccc(C)c(C)c2)C(=O)/C1=N\Nc1cccc(-c2cccc(C(=O)O)c2)c1O [ELTROMBOPAG]
